# Where “and” joins values, the source holds several entries; their conditions need not be identical. Equal entries are not always repeated. Where two headings read alike, the source gives them in different places. Marks after values point to notes of the source that are not given here.
# Experiments:
# MDA-MB-453 cells [1] = test: MTT assay, 96 hours; type: cell-based, human; settings: for IC50: Homo sapiens, MTT, 96 h
# Procedure: For the Coulter counter assay, cells were seeded at 2×10^4 cells per well in 24 well plates (0.875 cm diameter) as described previously. […] Control and treated cells were compared using the student's t-test (p<0.05). For cell cycle analysis the cells were plated (3×10^5) onto 6 cm dishes and allowed to attach for 24 hours. […] After 24 hours the cells were analyzed by DNA flow cytometry, as described previously.
# MDA-MB-453 cells [2] = test: Combination with chemotherapy agents, cell count, combination index (CI); type: cell-based, human
# MCF7 cells [3] = test: MTT assay, 96 hours; type: cell-based, human
# MDA-MB-453 cells [4] = test: Western-blot analysis; type: cell-based, human; settings: for IκB band intensity relative to β-actin / IκκB band intensity relative to β-actin / PPAR-γ band intensity relative to β-actin / p-Her2 level (WB) / cyclin D1 band intensity relative to β-actin: MDA-MB-453; for increase in level of p-Src: serum-starved MDA-MB-453, 80 μg/ml, 30 min
# Procedure: (§1) Cells were treated for increasing times with approximately the IC50 concentration, or twice the IC50 concentration, of actein. The cells were harvested, washed with PBS, and sonicated in extraction buffer according to the procedure of Han et al. (Han et al., Stable overexpression of cyclin D1 in a human mammary epithelial cell line prolongs the S-phase, and inhibits growth. Oncogene, 10:953-61, 1995). The lysates were subjected to electrophoresis on a 10% or 12.5% SDS-polyacrylamide gel, and then transferred to a polyvinylidene difluoride (PVDF) membrane. The membrane was blocked with milk protein, and incubated with a solution containing the primary antibody against the following: cyclin D1 (Upstate Biotechnology, Lake Placid, N.Y.), p21^cip1 (Oncogene Research Products, Darmstadt, Germany), ppRb (ser 780, Medical and Biological Laboratories, Nagoya, Japan), cdk4 (Upstate Biotechnology, Lake Placid, N.Y.), EGFR (clone-74, Transduction Laboratories, Lexington, Ky.), p-EGFR (phospho (Y1173)-EGFR) (Cell Signaling, Beverly, Mass.), actin (Sigma, St. Louis, Mo.), Her-2/neu (Cell Signaling, Beverly, Mass.), or phospho-(Y1248)-Her-2/neu (Cell Signaling, Beverly, Mass.)), IκB (Sant Cruz Biotechnolgy, Santa Cruz, Calif.), IκκB (Sigma, St. Louis, Mo.) and PPARγ (Santa Cruz biotechnology, Santa Cruz, Calif.) (Masuda et al., Epigallocatechin-3-gallate inhibits activation of HER-2/neu and downstream signaling pathways in human head and neck and breast carcinoma cells. Clin. Cancer Res., 9: 3486-91, 2003). The membrane was washed, and incubated with horseradish peroxidase conjugated secondary antibody.
# (§2) Protein bands were visualized with the ECL-enhanced chemiluminescence system, according to the manufacturer's directions (Amersham Pharmacia Biotech) (Sgambato et al., Overexpression of p27 (Kip1) inhibits the growth of both normal and transformed human mammary epithelial cells. Cancer Research, 58:3448-54, 1998). The staining intensities of the visualized blots were quantified using NIH image software. For each protein, the relative band intensities were determined by comparing treated samples with untreated controls. These values were then normalized, using β-actin as an internal control.
# Western blot analysis. […] To assay activation of p-Src, cells were allowed to attach for 24 h, incubated in media without serum for 24 h; the medium was replaced with media without serum with DMSO, actein or digtioxin.
# Western blot analysis was performed as previously described. […] The membrane was incubated with the primary antibodies, cyclin D1 (Santa Cruz Biotechnology; Santa Cruz, Calif.), p-Src, Akt, p-Akt, ERK2 or p-Erk2 (Cell signaling, Beverly, Mass.); β-actin was used as a loading control.
# Western blot analysis was performed as described previously.
# cyclin D1 promoter = test: Cyclin D1 reporter assay (luciferase); type: cell-based, human; settings: MDA-MB-453, 24 h
# Procedure: The cyclin D1 promoter luciferase reporter plasmid, 1745CD1LUC, was prepared by Dr. R. Pestell (Albert Einstein Cancer Center, New York, N.Y.). The method used for transient transfection reporter assays was previously described (Soh et al., Novel roles of specific isoforms of protein kinase C in activation of the c-fos serum response element. Molecular and Cellular Biology, 19:1313-24, 1999). Using lipofectin, triplicate samples of MDA-MB-453 breast cancer cells (1×10^5 cells in 35-mm plates) were co-transfected using DNA of the indicated reporter plasmid (1 μg) and the β-gal plasmid as an internal control (10 μg of the pCMV-b-gal plasmid) in opti-MEM 1 medium (Life Technologies, Inc.). After 24 h, the medium was replaced with serum-free medium containing the indicated concentrations of actein. After 24 h, cells were harvested, and luciferase activity was determined with the luciferase assay system (Promega Corp. Madison, Wis.); β-gal activities were determined with the β-gal enzyme assay system (Promega). Luciferase activities were normalized to β-gal activities, to correct for differences in transfection efficiency.
# MCF7 cells [5] = test: Western-blot analysis; type: cell-based, human
# Procedure: as §1, §2
# [6] = tested on: rat liver gene expression
# [7] = rat liver, actein 35.7 mg/kg, 6 hours, vs control
# [8] = rat liver, actein 35.7 mg/kg, 24 hours, vs control
compound,measurement,setting,value
CC(=O)O[C@@H]1C[C@@]23C[C@@]24CC[C@H](O[C@@H]2OC[C@@H](O)[C@H](O)[C@H]2O)C(C)(C)[C@@H]4CC[C@H]3[C@]2(C)C[C@@H]3O[C@]4(C[C@@H](C)[C@@H]3[C@@]12C)O[C@H](O)[C@@]1(C)O[C@@H]41 [actein],amplification: IC50 ATPase inhibition / IC50 growth inhibition,MDA-MB-453 cells [1],about 2 fold
same,IC50,MDA-MB-453 cells [1]; read-out: IC50,~5 µg/mL and ~7.4 µM
same,"number of viable cells, average",MDA-MB-453 cells [2]; actein 1,148202.7
same,"number of viable cells, average",MDA-MB-453 cells [2]; actein 10,106747.3
same,"number of viable cells, average","MDA-MB-453 cells [2]; actein .1 (μg/ml), 96 h",174798.3
same,IC50,"MCF7 cells [3]; Homo sapiens, MCF7, unit inferred, read-out: IC50",20700 nM
same,IκB band intensity relative to β-actin,"MDA-MB-453 cells [4]; 3 h, 20 μg/ml",1.2 fold
same,IκκB band intensity relative to β-actin,"MDA-MB-453 cells [4]; 3 h, 20 μg/ml",1.79 fold
same,PPAR-γ band intensity relative to β-actin,"MDA-MB-453 cells [4]; 3 h, 20 μg/ml",1.39 fold
same,p-Her2 level (WB),"MDA-MB-453 cells [4]; 3 h, 20 μg/ml",0.71 fold
same,IκB band intensity relative to β-actin,"MDA-MB-453 cells [4]; 3 h, 40 μg/ml",1.09 fold
same,IκκB band intensity relative to β-actin,"MDA-MB-453 cells [4]; 3 h, 40 μg/ml",1.78 fold
same,PPAR-γ band intensity relative to β-actin,"MDA-MB-453 cells [4]; 3 h, 40 μg/ml",0.93 fold and 0.92 fold
same,cyclin D1 band intensity relative to β-actin,"MDA-MB-453 cells [4]; 3 h, 40 μg/ml",0.93 fold
same,p-Her2 level (WB),"MDA-MB-453 cells [4]; 3 h, 40 μg/ml",0.86 fold
same,IκκB band intensity relative to β-actin,"MDA-MB-453 cells [4]; 10 h, 20 μg/ml",0.48 fold
same,IκκB band intensity relative to β-actin,"MDA-MB-453 cells [4]; 10 h, 40 μg/ml",0.59 fold
same,IκB band intensity relative to β-actin,"MDA-MB-453 cells [4]; 24 h, 20 μg/ml",0.81 fold
same,IκκB band intensity relative to β-actin,"MDA-MB-453 cells [4]; 24 h, 20 μg/ml",1.06 fold
same,PPAR-γ band intensity relative to β-actin,"MDA-MB-453 cells [4]; 24 h, 20 μg/ml",1.3 fold
same,cyclin D1 band intensity relative to β-actin,"MDA-MB-453 cells [4]; 24 h, 20 μg/ml",1.3 fold
same,p-Her2 level (WB),"MDA-MB-453 cells [4]; 24 h, 20 μg/ml",0.81 fold
same,IκB band intensity relative to β-actin,"MDA-MB-453 cells [4]; 24 h, 40 μg/ml",0.53 fold
same,IκκB band intensity relative to β-actin,"MDA-MB-453 cells [4]; 24 h, 40 μg/ml",0.95 fold
same,PPAR-γ band intensity relative to β-actin,"MDA-MB-453 cells [4]; 24 h, 40 μg/ml",0.67 fold
same,cyclin D1 band intensity relative to β-actin,"MDA-MB-453 cells [4]; 24 h, 40 μg/ml",0.44 fold
same,p-Her2 level (WB),"MDA-MB-453 cells [4]; 24 h, 40 μg/ml",0.53 fold
same,increase in level of p-Src,MDA-MB-453 cells [4],1.5 fold
same,cyclin D1 promoter activity,cyclin D1 promoter; 20 μg/ml,0.87 fold
same,cyclin D1 promoter activity,cyclin D1 promoter; 40 μg/ml,0.093 fold
same,cellular level of cyclin D1,"MCF7 cells [5]; 40 μg/ml, 24 h",almost a complete loss
same,level of EGFR,MCF7 cells [5]; 20 or 40 μg/ml,not significantly affected
same,p21cip1 band intensity relative to β-actin,"MCF7 cells [5]; 3 h, 20 μg/ml",1.47 fold
same,ppRb band intensity relative to β-actin,"MCF7 cells [5]; 3 h, 20 μg/ml",1.51 fold
same,p21cip1 band intensity relative to β-actin,"MCF7 cells [5]; 3 h, 40 μg/ml",1.17 fold and 1 fold
same,ppRb band intensity relative to β-actin,"MCF7 cells [5]; 3 h, 40 μg/ml",1.59 fold
same,p21cip1 band intensity relative to β-actin,"MCF7 cells [5]; 10 h, 20 μg/ml",1.75 fold
same,ppRb band intensity relative to β-actin,"MCF7 cells [5]; 10 h, 20 μg/ml",0.61 fold
same,p21cip1 band intensity relative to β-actin,"MCF7 cells [5]; 10 h, 40 μg/ml",1.37 fold
same,ppRb band intensity relative to β-actin,"MCF7 cells [5]; 10 h, 40 μg/ml",0.64 fold
same,p21cip1 band intensity relative to β-actin,"MCF7 cells [5]; 24 h, 20 μg/ml",0.94 fold
same,ppRb band intensity relative to β-actin,"MCF7 cells [5]; 24 h, 20 μg/ml",0.80 fold and 0.8 fold
same,p21cip1 band intensity relative to β-actin,"MCF7 cells [5]; 24 h, 40 μg/ml",0.78 fold
same,ppRb band intensity relative to β-actin,"MCF7 cells [5]; 24 h, 40 μg/ml",0.43 fold
same,"ATP synthase expression, fold-change (log)","[6]; actein 35.7 mg/kg, 6 hours",−0.05
same,number of genes with significant change (p<0.05) in transcription level,"[6]; actein 35.7 mg/kg, 6 hours",297
same,"erythropoietin expression, fold-change (log)","[6]; actein 35.7 mg/kg, 6 hours, rat liver",−0.22
same,"C4BP expression, fold-change (log)","[6]; actein 35.7 mg/kg, 24 hours",0.17
same,"CXCL1 expression, fold-change (log)","[6]; actein 35.7 mg/kg, 24 hours",0.44
same,"FDPS expression, fold-change (log)","[6]; actein 35.7 mg/kg, 24 hours",0.34
same,"HMGCS expression, fold-change (log)","[6]; actein 35.7 mg/kg, 24 hours",0.36
same,"IPP expression, fold-change (log)","[6]; actein 35.7 mg/kg, 24 hours",0.80
same,"S100A9 expression, fold-change (log)","[6]; actein 35.7 mg/kg, 24 hours",0.79
same,"SCD1 expression, fold-change (log)","[6]; actein 35.7 mg/kg, 24 hours",−1.28
same,number of genes with significant change (p<0.05) in transcription level,"[6]; actein 35.7 mg/kg, 24 hours",1335
same,"PPS, Hepatic inflammatory infiltrate, centrilobular signature","[6]; female, Sprague-Dawley, rat, in vivo, 6 h",0.58
same,"PPS, Hepatic inflammatory infiltrate, early gene expression signature","[6]; female, Sprague-Dawley, rat, in vivo, 24 h",0.56
same,Fold-change (log) ATP5I (1387019_at),[6]; [7],−0.05*
same,Fold-change (log) EPO (1387308_at),[6]; [7],−0.22^†
same,Fold-change (log) ACOX1 (1367680_at),[6]; [8],−0.17*
same,"Fold-change (log) C4BP, Complement component 4 binding protein, alpha (1369764_at)",[6]; [8],0.09*
same,"Fold-change (log) C4BP, Complement component 4 binding protein, beta (1368695_at)",[6]; [8],0.17*
same,Fold-change (log) C5 (1383425_at),[6]; [8],0.18*
same,Fold-change (log) CD44 (1387952_a_at),[6]; [8],0.08*
same,Fold-change (log) CXCL1 (1387316_at),[6]; [8],0.44*
same,Fold-change (log) FDPS (1367667_at),[6]; [8],0.34*
same,Fold-change (log) HMGCS1 (1367932_at),[6]; [8],0.36^†
same,Fold-change (log) IPP (1388872_at),[6]; [8],0.80*
same,Fold-change (log) MG3PDH (1387670_at),[6]; [8],−0.38*
same,Fold-change (log) S100A9 (1387125_at),[6]; [8],0.79*
same,Fold-change (log) SAP (1367804_at),[6]; [8],−0.04*
same,Fold-change (log) SCD1 (1370355_at),[6]; [8],−1.28*
C[C@H]1O[C@@H](O[C@H]2[C@@H](O)C[C@H](O[C@H]3[C@@H](O)C[C@H](O[C@H]4CC[C@@]5(C)[C@H](CC[C@@H]6[C@@H]5CC[C@]5(C)[C@@H](C7=CC(=O)OC7)CC[C@]65O)C4)O[C@@H]3C)O[C@@H]2C)C[C@H](O)[C@@H]1O [digitoxin],IC50,"MDA-MB-453 cells [1]; MDA-MB-453, 96 h",~0.025 µg/mL and ~33 nM
same,IC50,"MCF7 cells [3]; Homo sapiens, MCF7, MCF7",0.2 µg/mL
same,IC50,"MCF7 cells [3]; Homo sapiens, MCF7, MCF7, unit inferred",261 nM
same,IC50,"MCF7 cells [3]; MCF7, unit inferred",260 nM
same,increase in level of p-Src,MDA-MB-453 cells [4],1.5 fold

# — patent publication US20120208776A1 (priority 2002, published 2012)
